{"source": "PubChem BioAssay (NCI)", "note": "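Interpolation was linear, between the two tested concentrations surrounding the appropriate level; five concentrations were tested over 48 hours in 96-well plates. Definition used: TGI = concentration required for complete inhibition of growth.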", "data": [{"system": "MCF7 breast", "assay": "inhibition of tumour cell growth, NCI panel, 48 h", "units": {"TGI": "µM"}, "values": [{"smiles": "[N-]=[N+]=NCc1nc(N)c2c3c(sc2n1)CCCC3", "TGI": 16.3}, {"smiles": "CCOC(=O)C(CCN1CCC2(CC1)C(=O)N(C)CN2c1ccccc1)C(=O)OCC", "TGI": "> 100"}, {"smiles": "Cc1cc(/N=C/c2ccc(F)cc2)n(-c2ccccc2)n1", "TGI": "> 100"}, {"smiles": "COC1=C(Br)[C@H](O)[C@@]2(C=C1Br)CC(C(=O)NCCCOc1c(Br)cc(C(O)CNC(C)=O)cc1Br)=NO2", "note": "(stereo not given in full)", "TGI": "> 10"}, {"smiles": "COc1ccc(C[C@H]2COC(=O)[C@@H]2Cc2cccc(Br)c2)cc1OC", "TGI": 63.2}, {"smiles": "CCOC(=O)/C=C(/C(=O)OCC)n1cnc2c(=O)[nH]c(NC(C)=O)nc21", "TGI": "> 100"}, {"smiles": "COc1cccc(C2c3cc4c(cc3OC(C)(N3CCCC3)C2C)OCO4)c1", "note": "(stereo not given)", "TGI": 45.7}, {"smiles": "O=C1NC(N/N=C\\C(O)C(O)C(O)C(O)CO)=N/C1=C/c1ccc(Cl)cc1", "note": "(stereo not given)", "TGI": "> 100"}, {"smiles": "CC(Oc1ccc(Cl)cc1Cl)C(=O)NN1C(=O)CSC1c1ccccc1", "note": "(stereo not given)", "TGI": "> 100"}, {"smiles": "CCOC(=O)/C=C(\\C(=O)OCC)n1ccc(=O)n(Cc2cn(CCCCOC(C)=O)nn2)c1=O", "TGI": 23.8}, {"smiles": "CC1=C(/C=C/C(C)=C/C=C/C(C)=C/C(=O)OC2CC(n3cc(F)c(=O)[nH]c3=O)OC2CO)C(C)(C)CCC1", "note": "(stereo not given)", "TGI": 19.5}, {"smiles": "Cc1cc(C(F)(F)F)cc(-n2nc(NS(=O)(=O)c3cc(C)c(Cl)cc3S)nc2N)n1", "TGI": "> 100"}, {"smiles": "CC1CN=C(N(C(=O)Nc2ccccc2)c2ccc(Cl)c(Cl)c2)S1", "note": "(stereo not given)", "TGI": "> 100"}, {"smiles": "CC(C)(C)[Si](C)(C)Oc1ccc(C2CNC(=O)C23CCC(=O)N3Cc2ccccc2)cc1", "note": "(stereo not given)", "TGI": 17.6}]}, {"system": "SN12C renal", "assay": "inhibition of tumour cell growth, NCI panel, 48 h", "units": {"TGI": "µM"}, "values": [{"smiles": "[N-]=[N+]=NCc1nc(N)c2c3c(sc2n1)CCCC3", "TGI": 10.2}, {"smiles": "CCOC(=O)C(CCN1CCC2(CC1)C(=O)N(C)CN2c1ccccc1)C(=O)OCC", "TGI": "> 100"}, {"smiles": "Cc1cc(/N=C/c2ccc(F)cc2)n(-c2ccccc2)n1", "TGI": "> 100"}, {"smiles": "COC1=C(Br)[C@H](O)[C@@]2(C=C1Br)CC(C(=O)NCCCOc1c(Br)cc(C(O)CNC(C)=O)cc1Br)=NO2", "note": "(stereo not given in full)", "TGI": "> 10"}, {"smiles": "COc1ccc(C[C@H]2COC(=O)[C@@H]2Cc2cccc(Br)c2)cc1OC", "TGI": "> 100"}, {"smiles": "CCOC(=O)/C=C(/C(=O)OCC)n1cnc2c(=O)[nH]c(NC(C)=O)nc21", "TGI": "> 100"}, {"smiles": "COc1cccc(C2c3cc4c(cc3OC(C)(N3CCCC3)C2C)OCO4)c1", "note": "(stereo not given)", "TGI": 48.6}, {"smiles": "O=C1NC(N/N=C\\C(O)C(O)C(O)C(O)CO)=N/C1=C/c1ccc(Cl)cc1", "note": "(stereo not given)", "TGI": "> 100"}, {"smiles": "CC(Oc1ccc(Cl)cc1Cl)C(=O)NN1C(=O)CSC1c1ccccc1", "note": "(stereo not given)", "TGI": "> 100"}, {"smiles": "CCOC(=O)/C=C(\\C(=O)OCC)n1ccc(=O)n(Cc2cn(CCCCOC(C)=O)nn2)c1=O", "TGI": 43}, {"smiles": "CC1=C(/C=C/C(C)=C/C=C/C(C)=C/C(=O)OC2CC(n3cc(F)c(=O)[nH]c3=O)OC2CO)C(C)(C)CCC1", "note": "(stereo not given)", "TGI": 32}, {"smiles": "Cc1cc(C(F)(F)F)cc(-n2nc(NS(=O)(=O)c3cc(C)c(Cl)cc3S)nc2N)n1", "TGI": "> 100"}, {"smiles": "CC1CN=C(N(C(=O)Nc2ccccc2)c2ccc(Cl)c(Cl)c2)S1", "note": "(stereo not given)", "TGI": 56.6}, {"smiles": "CC(C)(C)[Si](C)(C)Oc1ccc(C2CNC(=O)C23CCC(=O)N3Cc2ccccc2)cc1", "note": "(stereo not given)", "TGI": 35.9}]}, {"system": "TK-10 renal", "assay": "inhibition of tumour cell growth, NCI panel, 48 h", "units": {"TGI": "µM"}, "values": [{"smiles": "[N-]=[N+]=NCc1nc(N)c2c3c(sc2n1)CCCC3", "TGI": 26.5}, {"smiles": "CCOC(=O)C(CCN1CCC2(CC1)C(=O)N(C)CN2c1ccccc1)C(=O)OCC", "TGI": "> 100"}, {"smiles": "Cc1cc(/N=C/c2ccc(F)cc2)n(-c2ccccc2)n1", "TGI": "> 100"}, {"smiles": "COC1=C(Br)[C@H](O)[C@@]2(C=C1Br)CC(C(=O)NCCCOc1c(Br)cc(C(O)CNC(C)=O)cc1Br)=NO2", "note": "(stereo not given in full)", "TGI": "> 10"}, {"smiles": "COc1ccc(C[C@H]2COC(=O)[C@@H]2Cc2cccc(Br)c2)cc1OC", "TGI": 82}, {"smiles": "CCOC(=O)/C=C(/C(=O)OCC)n1cnc2c(=O)[nH]c(NC(C)=O)nc21", "TGI": "> 100"}, {"smiles": "COc1cccc(C2c3cc4c(cc3OC(C)(N3CCCC3)C2C)OCO4)c1", "note": "(stereo not given)", "TGI": 37.2}, {"smiles": "O=C1NC(N/N=C\\C(O)C(O)C(O)C(O)CO)=N/C1=C/c1ccc(Cl)cc1", "note": "(stereo not given)", "TGI": "> 100"}, {"smiles": "CC(Oc1ccc(Cl)cc1Cl)C(=O)NN1C(=O)CSC1c1ccccc1", "note": "(stereo not given)", "TGI": "> 100"}, {"smiles": "CCOC(=O)/C=C(\\C(=O)OCC)n1ccc(=O)n(Cc2cn(CCCCOC(C)=O)nn2)c1=O", "TGI": 13.6}, {"smiles": "CC1=C(/C=C/C(C)=C/C=C/C(C)=C/C(=O)OC2CC(n3cc(F)c(=O)[nH]c3=O)OC2CO)C(C)(C)CCC1", "note": "(stereo not given)", "TGI": 25.8}, {"smiles": "Cc1cc(C(F)(F)F)cc(-n2nc(NS(=O)(=O)c3cc(C)c(Cl)cc3S)nc2N)n1", "TGI": "> 100"}, {"smiles": "CC1CN=C(N(C(=O)Nc2ccccc2)c2ccc(Cl)c(Cl)c2)S1", "note": "(stereo not given)", "TGI": "> 100"}, {"smiles": "CC(C)(C)[Si](C)(C)Oc1ccc(C2CNC(=O)C23CCC(=O)N3Cc2ccccc2)cc1", "note": "(stereo not given)", "TGI": 51.8}]}, {"system": "HT29 colon", "assay": "inhibition of tumour cell growth, NCI panel, 48 h", "units": {"TGI": "µM"}, "values": [{"smiles": "[N-]=[N+]=NCc1nc(N)c2c3c(sc2n1)CCCC3", "TGI": 3.15}, {"smiles": "CCOC(=O)C(CCN1CCC2(CC1)C(=O)N(C)CN2c1ccccc1)C(=O)OCC", "TGI": "> 100"}, {"smiles": "Cc1cc(/N=C/c2ccc(F)cc2)n(-c2ccccc2)n1", "TGI": "> 100"}, {"smiles": "COC1=C(Br)[C@H](O)[C@@]2(C=C1Br)CC(C(=O)NCCCOc1c(Br)cc(C(O)CNC(C)=O)cc1Br)=NO2", "note": "(stereo not given in full)", "TGI": "> 10"}, {"smiles": "COc1ccc(C[C@H]2COC(=O)[C@@H]2Cc2cccc(Br)c2)cc1OC", "TGI": 60.8}, {"smiles": "CCOC(=O)/C=C(/C(=O)OCC)n1cnc2c(=O)[nH]c(NC(C)=O)nc21", "TGI": "> 100"}, {"smiles": "COc1cccc(C2c3cc4c(cc3OC(C)(N3CCCC3)C2C)OCO4)c1", "note": "(stereo not given)", "TGI": 15}, {"smiles": "O=C1NC(N/N=C\\C(O)C(O)C(O)C(O)CO)=N/C1=C/c1ccc(Cl)cc1", "note": "(stereo not given)", "TGI": "> 100"}, {"smiles": "CC(Oc1ccc(Cl)cc1Cl)C(=O)NN1C(=O)CSC1c1ccccc1", "note": "(stereo not given)", "TGI": "> 100"}, {"smiles": "CCOC(=O)/C=C(\\C(=O)OCC)n1ccc(=O)n(Cc2cn(CCCCOC(C)=O)nn2)c1=O", "TGI": 21.7}, {"smiles": "CC1=C(/C=C/C(C)=C/C=C/C(C)=C/C(=O)OC2CC(n3cc(F)c(=O)[nH]c3=O)OC2CO)C(C)(C)CCC1", "note": "(stereo not given)", "TGI": 21.5}, {"smiles": "Cc1cc(C(F)(F)F)cc(-n2nc(NS(=O)(=O)c3cc(C)c(Cl)cc3S)nc2N)n1", "TGI": "> 100"}, {"smiles": "CC1CN=C(N(C(=O)Nc2ccccc2)c2ccc(Cl)c(Cl)c2)S1", "note": "(stereo not given)", "TGI": 78}, {"smiles": "CC(C)(C)[Si](C)(C)Oc1ccc(C2CNC(=O)C23CCC(=O)N3Cc2ccccc2)cc1", "note": "(stereo not given)", "TGI": 24.8}]}, {"system": "SK-MEL-5 melanoma", "assay": "inhibition of tumour cell growth, NCI panel, 48 h", "units": {"TGI": "µM"}, "values": [{"smiles": "[N-]=[N+]=NCc1nc(N)c2c3c(sc2n1)CCCC3", "TGI": 3.41}, {"smiles": "CCOC(=O)C(CCN1CCC2(CC1)C(=O)N(C)CN2c1ccccc1)C(=O)OCC", "TGI": "> 100"}, {"smiles": "Cc1cc(/N=C/c2ccc(F)cc2)n(-c2ccccc2)n1", "TGI": "> 100"}, {"smiles": "COC1=C(Br)[C@H](O)[C@@]2(C=C1Br)CC(C(=O)NCCCOc1c(Br)cc(C(O)CNC(C)=O)cc1Br)=NO2", "note": "(stereo not given in full)", "TGI": "> 10"}, {"smiles": "COc1ccc(C[C@H]2COC(=O)[C@@H]2Cc2cccc(Br)c2)cc1OC", "TGI": 30.5}, {"smiles": "CCOC(=O)/C=C(/C(=O)OCC)n1cnc2c(=O)[nH]c(NC(C)=O)nc21", "TGI": "> 100"}, {"smiles": "COc1cccc(C2c3cc4c(cc3OC(C)(N3CCCC3)C2C)OCO4)c1", "note": "(stereo not given)", "TGI": 14.5}, {"smiles": "O=C1NC(N/N=C\\C(O)C(O)C(O)C(O)CO)=N/C1=C/c1ccc(Cl)cc1", "note": "(stereo not given)", "TGI": "> 100"}, {"smiles": "CC(Oc1ccc(Cl)cc1Cl)C(=O)NN1C(=O)CSC1c1ccccc1", "note": "(stereo not given)", "TGI": "> 100"}, {"smiles": "CCOC(=O)/C=C(\\C(=O)OCC)n1ccc(=O)n(Cc2cn(CCCCOC(C)=O)nn2)c1=O", "TGI": "> 54.2"}, {"smiles": "CC1=C(/C=C/C(C)=C/C=C/C(C)=C/C(=O)OC2CC(n3cc(F)c(=O)[nH]c3=O)OC2CO)C(C)(C)CCC1", "note": "(stereo not given)", "TGI": 13.9}, {"smiles": "Cc1cc(C(F)(F)F)cc(-n2nc(NS(=O)(=O)c3cc(C)c(Cl)cc3S)nc2N)n1", "TGI": "> 100"}, {"smiles": "CC1CN=C(N(C(=O)Nc2ccccc2)c2ccc(Cl)c(Cl)c2)S1", "note": "(stereo not given)", "TGI": 34.5}, {"smiles": "CC(C)(C)[Si](C)(C)Oc1ccc(C2CNC(=O)C23CCC(=O)N3Cc2ccccc2)cc1", "note": "(stereo not given)", "TGI": 19.6}]}]}
